From US20240294478A1, “ANTI-CANCER COMPOUNDS AND METHODS OF USE” (YALE UNIVERSITY, priority 2021, published 2024)
Read-outs that look alike come from different tables or passages of the source.

Experiments:
[1] = tested on: LN229 MGMT−/MMR− cells; assay: Short-term cell viability assay, LN229 MGMT-/MMR- (shRNA targeting MSH2); assay type: cell-based, human; settings: for IC50: Homo sapiens, read-out: IC50 against LN229 cell lines, MGMT− MMR−; for activity in MGMT−/MMR− cells, in words: LN229 MGMT−/MMR−
Protocol: LN229 MGMT- and MGMT+ cell lines were a gift from B. Kaina (Johannes Gutenberg University Mainz, Mainz, Germany) and grown in Gibco® Duilbecco's Modified Eagle Medium with 10% fetal bovine serum (DMEM). For each compound tested, the relationship between MGMT status and MMR status and compound activity, in terms of IC50 values ([…]), was determined by the following method. On day 1, LN229 isogenic cells of varying MGMT and MMR status were seeded in 96 well format at a density of 2000 cells/well in 100 μL of DMEM media and allowed to adhere overnight. On day 2, a drug master plate was made with 100×the desired maximal concentration of test compound and serially diluted by 2 until 100×the minimal desired concentration, with one DMSO control. Then daughter plates were created with varied concentrations from 3-times the minimal concentration to 3-times the maximal desired concentration. Afterwards, 50 μL of daughter drug plate was added to 100 μL of the seeded cells for a final concentration of 1×in triplicate. Cells were allowed to grow for 6 days. On day 7, the cells were fixed, and stained with Hoechst nuclear dye and imaged to determine growth inhibition.
For each compound tested, the relationship between MGMT status and MMR status and compound activity, in terms of IC50 values (in μM), was determined. In addition, for each compound, the therapeutic index (TI) was calculated, according to the equation MGMT TI=IC50 (MGMT+/MMR+) divided by IC50 (MGMT−/MMR+). […] MMR RI (resistance index)=IC50 (MGMT−/MMR−) divided by IC50 (MGMT−/MMR+).
(§1) Short-term Cell Viability Assay. Cells were seeded in 96-well plates at 1000 or 2000 cells/well and allowed to adhere at 23° C. for 60 min and then incubated overnight at 37° C. […] Cells were imaged on a Cytation 3 imaging reader (BioTek) and quantified using CellProfiler software. For in vitro short-term growth delay experiments, IC50 values were determined from the nonlinear regression equation, [inhibitor] vs normalized response with variable slope.

[2] = tested on: LN229 MGMT+ shMLH1 cells; assay: Short-term viability assay, LN229 MGMT+ shMLH1; assay type: cell-based; settings: Homo sapiens, LN-229, Table III, read-out: IC50 against LN229 cell lines, MGMT MMR−
Protocol: The activity of KL-50 in MGMT-LN229 cells engineered to lack expression of other key MMR proteins including MSH6, MLH1, PMS2, and MSH3 was also confirmed. Western blotting was performed in LN229 MGMT+/−cells with stable expression of shRNA targeting MSH6, MLH1, PMS2, or MSH3 to confirm depletion of the shRNA targets. In shMSH6 cells, there was reduced expression of MSH2, and in shMLH1 cells, there was loss of PMS2, due to destabilization in the setting of loss of their heterodimeric partners. GAPDH serves as loading control. […] Short-term viability assay curves for KL-50 in LN229 MGMT+/−, MMR+/shMSH6 cells. […] Short-term viability assay curves for KL-50 in LN229 MGMT+/−, MMR+/shMLH1 cells. […] Short-term viability assay curves for KL-50 in LN229 MGMT+/−, MMR+/shPMS2 cells. […] Short-term viability assay curves for KL-50 in LN229 MGMT+/−, MMR+/shMSH3 cells.
MMR Protein shRNA Knockdown. pGIPZ lentiviral shRNA vectors targeting MSH2, MSH6, MLH1, PMS2, and MSH3 were purchased from Horizon Discovery (Table IV). […]
as §1, with “Assay.” for “Assay. Cells were seeded in 96-well plates at 1000 or 2000 cells/well and allowed to adhere at 23° C. for 60 min and then incubated overnight at 37° C.”

[3] = tested on: ATR-CHK1 and ATM-CHK2 signaling axes in LN229 MGMT+/−, MMR+/− cells; assay: Western blotting of CHK1 and CHK2 phosphorylation; assay type: cell-based, human; settings: 20 μM, 24 or 48 h
Protocol: FIGS. 5A-5K: KL-50 activates DNA damage response pathways and cycle arrest in MGMT-cells, independent of MMR, and induces sensitivity in cells deficient in ICL or HR repair. […] Columns, mean; error bars, SD; n 5 technical replicates. FIGS. 5D-5K: KL-50 induces activation of the ATR-CHK1 and ATM-CHK2 signaling axes and delayed DNA repair foci formation in MGMT-deficient cells, independent of MMR status. […] Treatment with 1 μM doxorubicin for 24 h (Doxo) served as a positive control for p-CHK1 activation. […] Points, mean % cells with >10 foci; error bars, SD; n >5 technical replicates. […] Points, % cells with 10 foci, n>250 cells per condition.
A prior finding that the ATR-CHK1 signaling axis is activated in response to TMZ-induced replication stress in MGMT-deficient cells prompted analysis of the phosphorylation status of CHK1 and CHK2 in LN229 MGMT+/− and MMR+/−cells. […] Analysis of foci formation of the DDR factors phospho-SER139-H2AX (yH2AX), p53 binding protein 1 (53BP1), and phospho-SER33-RPA2 (pRPA) over the period of 2 to 48 h (FIGS. 5A-5C and FIGS. 5D-5I). […] However, these foci dissipate at later timepoints (72-96 h; FIGS. 5J-5K), and they are not associated with appreciable cellular toxicity (as shown earlier in FIGS. 2A and 2B).

Structure (SMILES) | IC50 ([1]; LN-229, Table II) [µM] | activity in MGMT−/MMR− cells, in words [1] | MGMT− RI (resistance index) ([1]; Table II, IC50 (MGMT−/MMR−) divided by IC50 (MGMT−/MMR+)) | IC50 [2] [µM] | CHK1 and CHK2 phosphorylation [3] | IC50 ([1]; LN-229, 144 h, Table 1, 6 days growth) [µM]
NC(=O)c1ncn2c(=O)n(CCF)nnc12 [KL-50] | 22 ± 6.9 | exquisite sensitivity | 0.9 | 252 ± 28 | induced CHK1 and CHK2 phosphorylation in MGMT-cells regardless of MMR status | 
Cn1nnc2c(C(N)=O)ncn2c1=O [TMZ, 4-methyl-5-oxo-2,3,4,6,8-pentazabicyclo[4.3.0]nona-2,7,9-triene-9-carboxamide, reference compound] | 838 ± 100 | essentially inactive |  | 769 ± 100 | only induced phospho-CHK1 and —CHK2 in MGMT−/MMR+cells | 838 ± 100
